Results on 29 molecules are retold here after ChEMBL document CHEMBL4411283, “The p53 stabilizing agent CP-31398 and multi-kinase inhibitors. Designing, synthesizing and screening of styrylquinazoline series” (Eur J Med Chem, 2019).

The target of assay [1] is Tyrosine-protein kinase Fyn (Homo sapiens, UniProt P06241). Put plainly: Inhibition of Fyn A (unknown origin) at 0.5 uM preincubated for 10 mins followed by substrate addition and measured after 1 hr by ADP-Glo luminescence assay relative to control.
Assay [2] relates to HCT-116. Put plainly: cells. Conditions: Homo sapiens, HCT-116, 72 h.
Description: Antiproliferative activity against p53-/- human HCT116 cells after 72 hrs by CellTiter 96 aqueous one solution assay
Assay [3] relates to HCT-116. Put plainly: cells. The following applies: Homo sapiens, HCT-116, 72 h. This is another data set of the same source.
Description: Antiproliferative activity against p53+/+ human HCT116 cells after 72 hrs by CellTiter 96 aqueous one solution assay
The subject of the next assay is MCF7. The assay is described as follows: cells. The following applies: Homo sapiens, MCF7, 72 h.
The test system of another assay is A549. The assay is described as follows: cells. Conditions: Homo sapiens, A549, 72 h.
In another assay the test system is NHDF. Put plainly: cells. Conditions: Homo sapiens, 72 h.
Assay [4] has as its target Tyrosine-protein kinase BTK (Homo sapiens, UniProt Q06187). The assay is described as follows: Inhibition of BTK (unknown origin) preincubated for 10 mins followed by substrate addition and measured after 1 hr by ADP-Glo luminescence assay. Background: ADP-Glo turns the ADP formed in a reaction into a luminescent signal.

Sequence of Tyrosine-protein kinase Fyn (P06241 2-537 limits assumed): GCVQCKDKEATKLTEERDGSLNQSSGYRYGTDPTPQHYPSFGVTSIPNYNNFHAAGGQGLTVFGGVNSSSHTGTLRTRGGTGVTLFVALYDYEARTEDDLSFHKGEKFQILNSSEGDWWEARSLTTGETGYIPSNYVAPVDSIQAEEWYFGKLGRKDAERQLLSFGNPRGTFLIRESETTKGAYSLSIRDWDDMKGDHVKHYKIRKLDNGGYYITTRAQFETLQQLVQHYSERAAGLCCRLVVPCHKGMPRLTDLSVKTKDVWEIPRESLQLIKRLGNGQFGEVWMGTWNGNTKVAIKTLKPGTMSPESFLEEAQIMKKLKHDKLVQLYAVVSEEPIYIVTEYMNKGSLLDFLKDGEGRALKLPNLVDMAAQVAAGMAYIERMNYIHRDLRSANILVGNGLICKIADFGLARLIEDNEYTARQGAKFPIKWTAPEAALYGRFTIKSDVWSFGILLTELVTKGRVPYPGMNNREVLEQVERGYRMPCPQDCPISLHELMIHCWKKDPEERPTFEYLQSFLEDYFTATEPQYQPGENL
Sequence of Tyrosine-protein kinase BTK (Q06187 whole entry): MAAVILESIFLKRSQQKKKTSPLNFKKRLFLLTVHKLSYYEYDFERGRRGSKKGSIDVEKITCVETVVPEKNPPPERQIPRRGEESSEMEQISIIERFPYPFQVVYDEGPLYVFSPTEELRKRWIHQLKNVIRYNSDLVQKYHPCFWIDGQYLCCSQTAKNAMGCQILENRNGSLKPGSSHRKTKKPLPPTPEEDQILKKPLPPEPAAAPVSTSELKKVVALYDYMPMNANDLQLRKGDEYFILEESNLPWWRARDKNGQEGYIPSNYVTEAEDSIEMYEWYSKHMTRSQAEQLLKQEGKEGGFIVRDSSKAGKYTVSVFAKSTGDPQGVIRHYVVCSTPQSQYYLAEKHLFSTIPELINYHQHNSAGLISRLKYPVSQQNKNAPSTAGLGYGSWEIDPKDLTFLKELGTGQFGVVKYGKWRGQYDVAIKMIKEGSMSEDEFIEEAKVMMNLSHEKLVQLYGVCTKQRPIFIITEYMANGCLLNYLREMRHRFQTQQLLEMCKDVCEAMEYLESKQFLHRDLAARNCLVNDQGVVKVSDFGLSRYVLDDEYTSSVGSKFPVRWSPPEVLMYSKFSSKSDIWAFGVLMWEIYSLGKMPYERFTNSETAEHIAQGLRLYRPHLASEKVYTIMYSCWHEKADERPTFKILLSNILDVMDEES
Description for A549: Antiproliferative activity against human A549 cells after 72 hrs by CellTiter 96 aqueous one solution assay
Description for MCF7: Antiproliferative activity against human MCF7 cells after 72 hrs by CellTiter 96 aqueous one solution assay
Description for NHDF: Antiproliferative activity against human NHDF cells after 72 hrs by CellTiter 96 aqueous one solution assay

As usually defined, the inhibition is the drop in the measured response relative to a control, in per cent. Low readings indicate a response near the control, high ones a response far below the control. In turn, `CNC(=O)c1ccccc1Sc1ccc2c(/C=C/c3ccccn3)n[nH]c2c1` showed an inhibition in assay [1] of 44%.
Usually IC50 stands for the point on the concentration scale where inhibition reaches its midpoint. A low value points to greater potency. Turning to `CCOc1ccc(/C=C/c2nc3ccccc3c(=O)[nH]2)cc1`, the inhibition in assay [1] is 0%. In addition, the IC50 with HCT-116 [2] and in the assay on HCT-116 [3] was > 25 µM each time.
As to `O=c1[nH]c(/C=C/c2cccc([N+](=O)[O-])c2)nc2ccccc12`, the inhibition in assay [1] came to 0%. Also, the IC50 in the assay on HCT-116 [2] and with HCT-116 [3] was > 25 µM in each case.
In the case of `COc1ccc(/C=C/c2nc(NCCCN(C)C)c3ccccc3n2)cc1`, the IC50 is 27 µM in the assay with MCF7 and > 25 µM with A549. The inhibition in assay [1] stood at 31%.
Regarding `CCOc1ccccc1/C=C/c1nc2ccccc2c(=O)[nH]1`, the IC50 was > 25 µM in the assay on NHDF; 6.26 µM in the assay with MCF7; 6.43 µM with HCT-116 [2]; 21.8 µM in the assay with A549; 23.3 µM in the assay with HCT-116 [3]. Also, the inhibition in assay [1] was 0%.
With `COc1ccccc1/C=C/c1nc(Nc2ccccc2Cl)c2ccccc2n1`, the IC50 was > 25 µM in the assay with NHDF; 18.9 µM in the assay on MCF7; 16.1 µM in the assay with HCT-116 [2]; > 25 µM in the assay on A549; > 25 µM with HCT-116 [3]. Further, the inhibition in assay [1] is 0%.
On to `Oc1cccc(Nc2nc(/C=C/c3cc4c(cc3Br)OCO4)nc3ccccc23)c1`, for which the IC50 in the assay with NHDF was determined as 4.59 µM; in the assay with MCF7, 4.38 µM; in assay [4] it was 287 nM; in the assay with HCT-116 [2], 5.03 µM; in the assay with A549, 7.41 µM; with HCT-116 [3], 4.38 µM. Also, the inhibition in assay [1] came out at 0%.
Turning to `COc1ccccc1/C=C/c1nc(Nc2cccc(O)c2)c2ccccc2n1`, the IC50 in the assay with NHDF was determined as 17.5 µM; in the assay on MCF7, 11.2 µM; in the assay with HCT-116 [2], 16.4 µM; with A549 it was 16.6 µM; in the assay on HCT-116 [3], 21.7 µM. Further, the inhibition in assay [1] was 0%.
Take `Cc1nc(Nc2ncc(C(=O)Nc3c(C)cccc3Cl)s2)cc(N2CCN(CCO)CC2)n1` [DASATINIB]: the IC50 is 0.71 µM with NHDF, 1.11 µM in the assay with MCF7, 23.7 µM with A549 and 3.58 µM in the assay with HCT-116 [3]. In assay [1], this molecule registered an inhibition of 92%.
With `COc1ccccc1/C=C/c1nc2ccccc2c(=O)[nH]1`, the IC50 was > 25 µM in the assay with NHDF; 4.45 µM with MCF7; 456 nM in assay [4]; 1.46 µM in the assay on HCT-116 [2]; > 25 µM in the assay on A549; 2.47 µM in the assay with HCT-116 [3]. The same molecule had an inhibition in assay [1] of 0%.
Take `COc1ccccc1/C=C/c1nc(NCc2ccc3c(c2)OCO3)c2ccccc2n1`: the IC50 turned out to be 14.4 µM with NHDF; 10.8 µM with MCF7; 13.3 µM in the assay with HCT-116 [2]; 11.6 µM in the assay on A549; 10.8 µM in the assay with HCT-116 [3]. The molecule also had an inhibition in assay [1] of 1%.
For `COc1ccc(/C=C/c2nc(Nc3cccc(O)c3)c3ccccc3n2)cc1`, the IC50 in the assay with NHDF is > 25 µM; with MCF7, 14.7 µM; in the assay on HCT-116 [2], 22.9 µM; with A549, 20.8 µM; with HCT-116 [3], 22.9 µM. In assay [1], this molecule yielded an inhibition of 0%.
As for `COc1ccc(OC)c(Nc2nc(/C=C/c3ccccc3OC(C)=O)nc3ccccc23)c1`, the IC50 in the assay with NHDF was > 25 µM; with MCF7, 7.84 µM; in the assay with HCT-116 [2] it was > 25 µM; in the assay on A549 it was > 25 µM; in the assay with HCT-116 [3], > 25 µM. Moreover, in assay [1], the inhibition turned out to be 63%.
In turn, `COc1cccc(/C=C/c2nc3ccccc3c(=O)[nH]2)c1` had an inhibition in assay [1] of 0%. In addition, the IC50 in the assay on HCT-116 [2] and in the assay with HCT-116 [3] was > 25 µM throughout.
With `CC(=O)Oc1ccccc1/C=C/c1nc(Nc2ccccc2I)c2ccccc2n1`, the IC50 with NHDF was 23.2 µM; in the assay with MCF7, 15.6 µM; with HCT-116 [2] it was > 25 µM; with A549, 16.4 µM; in the assay on HCT-116 [3], > 25 µM. For the same molecule, in assay [1], the inhibition is 24%.
In assay [1], `Oc1cccc(Nc2nc(/C=C/c3cccc(Cl)c3)nc3ccccc23)c1` yielded an inhibition of 0%. Besides, the IC50 in the assay on HCT-116 [2] and in the assay with HCT-116 [3] was > 25 µM in each case.
For `COc1ccc(/C=C/c2nc3ccccc3c(=O)[nH]2)cc1`, the IC50 with MCF7, with HCT-116 [2], in the assay on A549 and in the assay on HCT-116 [3] was > 25 µM each time. Further, in assay [1], the inhibition came out at 2%.
Turning to `CC(=O)Oc1ccccc1/C=C/c1nc2ccccc2c(=O)[nH]1`, the IC50 is > 25 µM with NHDF; > 25 µM in the assay on MCF7; 17.2 µM in the assay on HCT-116 [2]; > 25 µM in the assay on A549; > 25 µM in the assay on HCT-116 [3]. In assay [1], this molecule registered an inhibition of 0%.
Regarding `O=c1[nH]c(/C=C/c2ccc3c(c2)OCO3)nc2ccccc12`, the inhibition in assay [1] was found to be 4%. For the same molecule, the IC50 in the assay with HCT-116 [2] and in the assay with HCT-116 [3] was > 25 µM each time.
In the case of `CC(=O)Oc1cccc(/C=C/c2nc3ccccc3c(=O)[nH]2)c1`, the IC50 in the assay with NHDF was > 25 µM; in the assay on MCF7 it was 6.37 µM; in the assay on HCT-116 [2], 9.29 µM; in the assay with A549, > 25 µM; with HCT-116 [3] it was 15.3 µM. The inhibition in assay [1] was 0%.
For the molecule `O=c1[nH]c(/C=C/c2ccc([N+](=O)[O-])cc2)nc2ccccc12`, the inhibition in assay [1] amounted to 29%. Further, the IC50 with HCT-116 [2] and in the assay on HCT-116 [3] was > 25 µM in each case.
On to `CCCCOc1ccc(/C=C/c2nc3ccccc3c(=O)[nH]2)cc1`, for which the IC50 with MCF7, with HCT-116 [2], in the assay on A549 and with HCT-116 [3] was > 25 µM throughout. Also, the inhibition in assay [1] came out at 0%.
On to `Oc1ccc(Nc2nc(/C=C/c3cccc(Cl)c3)nc3ccccc23)cc1`, for which the IC50 in the assay on NHDF was found to be 14.2 µM; in the assay with MCF7 it was 9.19 µM; with HCT-116 [2], 22.7 µM; in the assay with A549 it was 14.8 µM; in the assay on HCT-116 [3] it was 21.9 µM. In assay [1], this molecule gave an inhibition of 0%.
`COc1ccccc1/C=C/c1nc(Nc2ccc(O)cc2)c2ccccc2n1`: the concentration for half-maximal inhibition (IC50) in the assay on NHDF was 13.8 µM; in the assay with MCF7 it was 8.29 µM; in the assay on HCT-116 [2] it was 17.9 µM; with A549, 13 µM; in the assay on HCT-116 [3], > 25 µM. This molecule gave an inhibition in assay [1] of 0%.
As for `O=c1[nH]c(/C=C/c2c(Br)ccc3c2OCO3)nc2ccccc12`, the IC50 in the assay with NHDF was 14.8 µM; with MCF7, 12.8 µM; with HCT-116 [2] it was > 25 µM; in the assay with A549 it was 13.8 µM; in the assay with HCT-116 [3], > 25 µM. In assay [1], this molecule had an inhibition of 61%.
`O=c1[nH]c(/C=C/c2cc3c(cc2Br)OCO3)nc2ccccc12`: the IC50 in the assay on MCF7, in the assay on HCT-116 [2], with A549 and in the assay on HCT-116 [3] was > 25 µM throughout. Further, the inhibition in assay [1] was found to be 0%.
Turning to `Cc1ccc(NC(=O)c2ccc(CN3CCN(C)CC3)cc2)cc1Nc1nccc(-c2cccnc2)n1` [IMATINIB], the IC50 with NHDF, with MCF7 and in the assay with A549 was > 25 µM throughout. Also, the inhibition in assay [1] amounted to 0%.
As to `O=c1[nH]c(/C=C/c2cccc3c2OCO3)nc2ccccc12`, the inhibition in assay [1] came to 40%. Besides, the IC50 in the assay with HCT-116 [2] and in the assay on HCT-116 [3] was > 25 µM in each case.
As to `CC(=O)Oc1ccc(/C=C/c2nc3ccccc3c(=O)[nH]2)c(OC(C)=O)c1`, the IC50 with NHDF was > 25 µM; with MCF7, > 25 µM; in the assay with HCT-116 [2] it was 23 µM; in the assay on A549 it was > 25 µM; with HCT-116 [3], > 25 µM. This molecule also came in with an inhibition in assay [1] of 19%.
